# Results published in patent US10016379B2, “Method of treatment for third spacing” (priority 2015, dated 2018).
# How the values were obtained:
# [1] = test system: patient's asthma, fluid retention, fatigue, weight loss and photo dermatitis; assay: Example 1: patient case, furosemide stopped and replaced with ethacrynic acid; assay type: in vivo; conditions: one patient
# Text: In this case it is thought that decreasing the medications for allergies the patient was on may have contributed to the unmasking of an allergy to one of the components in the trade name compound.
# [2] = test system: third spacing of fluid refractory to sulfa/sulfonamide; assay: Example 2: patient case, sulfa/sulfonamide compound stopped and patient placed on ethacrynic acid; assay type: in vivo; conditions: one patient; in one month; ethacrynic acid for a short period while stopping the sulfa/sulfonamide compound
# Text: A patient who suffered from a mental impairment but knew they were allergic to sulfa/sulfonamide compounds (their blood pressure fell), had clinical evidence of edema even though the patient was on a potent sulfa/sulfonamide medication. The patient was placed on ethacrynic acid for a short period of time while stopping the sulfa/sulfonamide compound and in one month, 40 pounds of fluid was removed. In this case, the patient not only had clinical evidence of edema, they also had third spacing of fluid refractory to sulfa/sulfonamide they were on. Unfortunately the patient was lost to follow up.
smiles,measurement,setting,value
C=C(CC)C(=O)c1ccc(OCC(=O)O)c(Cl)c1Cl [ethacrynic acid],laboratory studies,[1]; after replacing furosemide with ethacrynic acid,resolution of pyuria
same,"asthma, fluid retention, fatigue, weight loss and photo dermatitis",[1]; after stopping furosemide and replacing it with ethacrynic acid,improve within one weeks-time
same,"use of other medications for asthma, myalgia, dyspepsia and other symptoms",[1]; during ethacrynic acid treatment,less use or even elimination of other medications
same,tolerability (reason the patient could not continue the medication),[1]; trade name compound,adverse reaction to one of the constituents in the trade name compound
same,fluid removed,[2],40 pounds
